# According to ChEMBL document CHEMBL5505952, “Targeting SARS-CoV-2 entry processes: The promising potential and future of host-targeted small-molecule inhibitors” (Eur J Med Chem, 2024):
# Columns and labels:
# [1] = target: Spike glycoprotein/Angiotensin-converting enzyme 2 (Severe acute respiratory syndrome coronavirus 2, UniProt P0DTC2+Q9BYF1); experiment: Inhibition of SARS-CoV-2 spike protein RBD- human ACE2 interaction; type: protein assay
# [2] = tested on: Respiratory syncytial virus; experiment: microbe, parasite or virus in culture; settings: human respiratory syncytial virus, A2, HEp-2
# SARS-CoV-2 [3] = type: functional, organism-based; settings: Severe acute respiratory syndrome coronavirus 2, Vero C1008
# SARS-CoV-2 [4] = type: functional, organism-based; settings: Severe acute respiratory syndrome coronavirus 2, NRC-03-nhCoV, Vero C1008
# SARS-CoV-2 [5] = experiment: microbe, parasite or virus in culture; settings: Severe acute respiratory syndrome coronavirus 2, Huh-7
# SARS-CoV-2 [6] = type: functional, organism-based; settings: Severe acute respiratory syndrome coronavirus 2, Huh-7
# SARS-CoV-2 [7] = experiment: microbe, parasite or virus in culture; settings: Severe acute respiratory syndrome coronavirus 2, Vero C1008, 24 h
# SARS-CoV-2 [8] = experiment: Antiviral activity against VSV-S pseudotyped SARS-CoV-2 infected in human Calu-3 cells assessed as inhibition of viral growth; type: functional, organism-based; settings: Severe acute respiratory syndrome coronavirus 2, Calu-3
# SARS-CoV-2 [9] = experiment: microbe, parasite or virus in culture; settings: Severe acute respiratory syndrome coronavirus 2, B.1, VeroE6/TMPRSS2, 48 h
# Procathepsin L = Procathepsin L (Homo sapiens, UniProt P07711); experiment: Inhibition of human Cathepsin L using Cbz-Phe-Arg-AMC as substrate measured for 10 mins by fluorescence based analysis
# SARS-CoV-2 [10] = experiment: microbe, parasite or virus in culture; settings: Severe acute respiratory syndrome coronavirus 2, A549-ACE2
# SARS-CoV-2 [11] = type: functional, organism-based; settings: Severe acute respiratory syndrome coronavirus 2, Vero C1008, 48 h
# SARS-CoV-2 [12] = experiment: Antiviral activity against SARS-CoV-2 WA1/2020 infected in human Calu-3 cells preincubated for 2 hrs followed by viral infection and measured after 48 hrs by microscopy analysis; type: functional, organism-based; settings: Severe acute respiratory syndrome coronavirus 2, WA1/2020, Calu-3
# Dengue virus = type: functional, organism-based; settings: Huh-7, 48 h
# Ebolavirus = experiment: Antiviral activity against Ebola virus infected in human HeLa cells assessed as reduction in viral cytopathic effect; type: functional, organism-based; settings: Orthoebolavirus
# [13] = target: T1, 1-phosphatidylinositol 3-phosphate 5-kinase (Homo sapiens, UniProt Q9Y2I7); experiment: Binding affinity to N-terminal His-tagged human PIKfyve expressed in Sf9 cells assessed as dissociation constant
# SARS-CoV-2 [14] = type: functional, organism-based; settings: Severe acute respiratory syndrome coronavirus 2, Vero C1008, 72 h
# SARS-CoV-2 [15] = type: functional, organism-based; settings: Severe acute respiratory syndrome coronavirus 2, NRC-03-nhCoV, Vero C1008, 72 h
# [16] = target: T1, 1-phosphatidylinositol 3-phosphate 5-kinase; experiment: Inhibition of PIKfyve (unknown origin)
# SARS-CoV-2 [17] = type: functional, organism-based; settings: Severe acute respiratory syndrome coronavirus 2, Vero C1008, 48 h; remark: listed apart in the source
# [18] = target: Replicase polyprotein 1ab (Severe acute respiratory syndrome coronavirus 2, UniProt P0DTD1); experiment: Inhibition of SARS-CoV-2 MPro expressed in Escherichia coli BL21 (DE3) using Dabcyl-KTSAVLQSGFRKME-Edans as substrate incubated for 1 hr by fluorescence based analysis
# T1 sequence (Q9Y2I7 whole entry): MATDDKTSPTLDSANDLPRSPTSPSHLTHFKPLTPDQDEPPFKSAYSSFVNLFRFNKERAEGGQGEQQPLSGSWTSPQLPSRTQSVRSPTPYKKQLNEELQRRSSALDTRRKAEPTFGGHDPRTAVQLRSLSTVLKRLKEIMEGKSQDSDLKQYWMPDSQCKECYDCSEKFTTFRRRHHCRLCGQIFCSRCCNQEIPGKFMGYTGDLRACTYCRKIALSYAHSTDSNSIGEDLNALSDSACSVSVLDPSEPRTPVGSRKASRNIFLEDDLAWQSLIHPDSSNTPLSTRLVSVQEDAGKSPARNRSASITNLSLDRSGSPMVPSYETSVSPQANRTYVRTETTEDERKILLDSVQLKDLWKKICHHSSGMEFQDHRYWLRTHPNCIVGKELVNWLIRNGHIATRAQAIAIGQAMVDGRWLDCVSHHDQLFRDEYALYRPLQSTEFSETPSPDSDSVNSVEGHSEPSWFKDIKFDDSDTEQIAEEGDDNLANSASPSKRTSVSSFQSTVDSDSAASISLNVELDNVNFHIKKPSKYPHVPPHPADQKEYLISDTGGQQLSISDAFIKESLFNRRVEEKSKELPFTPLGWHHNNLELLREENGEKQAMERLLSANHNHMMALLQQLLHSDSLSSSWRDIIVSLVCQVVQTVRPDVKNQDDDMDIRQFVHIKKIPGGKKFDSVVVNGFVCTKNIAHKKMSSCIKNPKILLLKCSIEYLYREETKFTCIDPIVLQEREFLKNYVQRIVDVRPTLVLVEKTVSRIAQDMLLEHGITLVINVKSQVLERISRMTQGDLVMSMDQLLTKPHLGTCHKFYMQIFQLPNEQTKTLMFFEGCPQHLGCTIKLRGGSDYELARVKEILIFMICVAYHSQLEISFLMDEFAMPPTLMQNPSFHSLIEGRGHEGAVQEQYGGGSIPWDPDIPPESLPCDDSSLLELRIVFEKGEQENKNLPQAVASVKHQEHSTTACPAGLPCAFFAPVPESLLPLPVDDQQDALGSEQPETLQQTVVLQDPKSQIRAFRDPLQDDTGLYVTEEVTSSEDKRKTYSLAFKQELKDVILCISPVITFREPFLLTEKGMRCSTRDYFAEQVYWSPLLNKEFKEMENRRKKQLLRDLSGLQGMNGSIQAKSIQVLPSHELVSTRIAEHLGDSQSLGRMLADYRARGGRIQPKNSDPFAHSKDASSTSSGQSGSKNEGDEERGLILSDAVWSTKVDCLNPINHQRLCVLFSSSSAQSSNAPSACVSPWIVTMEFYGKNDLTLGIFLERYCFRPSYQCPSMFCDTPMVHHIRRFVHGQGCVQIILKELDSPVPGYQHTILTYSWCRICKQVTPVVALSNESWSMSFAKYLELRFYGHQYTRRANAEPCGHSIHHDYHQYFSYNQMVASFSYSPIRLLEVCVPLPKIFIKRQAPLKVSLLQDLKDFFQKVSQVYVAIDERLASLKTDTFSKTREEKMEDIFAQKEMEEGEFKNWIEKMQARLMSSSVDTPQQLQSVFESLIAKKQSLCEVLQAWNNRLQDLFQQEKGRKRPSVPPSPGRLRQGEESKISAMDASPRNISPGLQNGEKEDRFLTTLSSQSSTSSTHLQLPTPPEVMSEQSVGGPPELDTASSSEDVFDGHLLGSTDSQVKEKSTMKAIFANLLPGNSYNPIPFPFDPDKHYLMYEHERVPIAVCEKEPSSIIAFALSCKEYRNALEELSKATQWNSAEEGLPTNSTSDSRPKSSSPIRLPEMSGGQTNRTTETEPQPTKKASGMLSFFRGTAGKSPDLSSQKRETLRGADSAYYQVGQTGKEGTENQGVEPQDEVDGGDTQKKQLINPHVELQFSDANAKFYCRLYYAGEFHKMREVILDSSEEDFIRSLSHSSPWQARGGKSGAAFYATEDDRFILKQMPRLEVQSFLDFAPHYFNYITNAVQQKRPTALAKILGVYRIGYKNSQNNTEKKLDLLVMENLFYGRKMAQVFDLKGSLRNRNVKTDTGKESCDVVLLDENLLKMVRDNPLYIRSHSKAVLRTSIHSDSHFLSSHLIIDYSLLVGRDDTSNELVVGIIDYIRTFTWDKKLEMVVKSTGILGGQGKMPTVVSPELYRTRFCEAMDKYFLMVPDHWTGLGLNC
# Chain of Spike glycoprotein/Angiotensin-converting enzyme 2 (Q9BYF1 18-805 limits assumed, other chains not shown): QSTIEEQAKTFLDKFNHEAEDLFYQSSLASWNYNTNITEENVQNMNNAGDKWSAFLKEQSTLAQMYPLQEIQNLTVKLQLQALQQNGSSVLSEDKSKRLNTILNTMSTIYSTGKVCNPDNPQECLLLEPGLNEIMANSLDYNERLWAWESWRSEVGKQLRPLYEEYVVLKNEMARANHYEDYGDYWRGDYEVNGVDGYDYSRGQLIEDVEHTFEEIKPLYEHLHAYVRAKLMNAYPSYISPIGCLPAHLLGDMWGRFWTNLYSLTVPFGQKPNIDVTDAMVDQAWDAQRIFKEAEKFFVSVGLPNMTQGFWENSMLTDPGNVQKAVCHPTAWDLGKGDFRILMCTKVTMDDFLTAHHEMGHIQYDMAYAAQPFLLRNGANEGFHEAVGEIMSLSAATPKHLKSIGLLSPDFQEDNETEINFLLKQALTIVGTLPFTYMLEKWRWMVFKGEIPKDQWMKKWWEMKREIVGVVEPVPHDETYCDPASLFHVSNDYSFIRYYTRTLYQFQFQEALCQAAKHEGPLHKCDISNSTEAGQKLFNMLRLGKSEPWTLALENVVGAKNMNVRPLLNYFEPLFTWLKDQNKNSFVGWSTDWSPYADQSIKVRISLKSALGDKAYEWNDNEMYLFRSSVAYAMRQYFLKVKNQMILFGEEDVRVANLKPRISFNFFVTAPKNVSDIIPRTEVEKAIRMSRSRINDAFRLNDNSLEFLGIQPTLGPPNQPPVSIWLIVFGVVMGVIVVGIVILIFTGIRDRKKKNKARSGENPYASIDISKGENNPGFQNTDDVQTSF
# Chain of Procathepsin L (P07711 whole entry): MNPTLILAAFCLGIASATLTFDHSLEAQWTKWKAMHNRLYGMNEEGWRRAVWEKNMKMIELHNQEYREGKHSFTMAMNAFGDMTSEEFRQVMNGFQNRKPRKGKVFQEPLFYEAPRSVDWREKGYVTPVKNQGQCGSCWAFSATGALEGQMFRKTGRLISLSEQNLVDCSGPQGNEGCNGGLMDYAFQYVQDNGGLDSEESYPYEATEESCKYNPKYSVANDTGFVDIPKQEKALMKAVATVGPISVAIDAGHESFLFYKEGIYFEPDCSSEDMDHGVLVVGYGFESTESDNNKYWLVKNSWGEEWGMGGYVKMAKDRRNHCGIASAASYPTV
smiles,measurement,setting,value
CC(C)CCC[C@@H](C)[C@H]1CC[C@H]2[C@@H]3CC[C@H]4C[C@@H](O[C@@H]5O[C@H](COS(=O)(=O)[O-])[C@@H](O[C@H]6O[C@H](COS(=O)(=O)[O-])[C@@H](O[C@H]7O[C@H](COS(=O)(=O)[O-])[C@@H](O[C@H]8O[C@H](COS(=O)(=O)[O-])[C@@H](OS(=O)(=O)[O-])[C@H](OS(=O)(=O)[O-])[C@H]8OS(=O)(=O)[O-])[C@H](OS(=O)(=O)[O-])[C@H]7OS(=O)(=O)[O-])[C@H](OS(=O)(=O)[O-])[C@H]6OS(=O)(=O)[O-])[C@H](OS(=O)(=O)[O-])[C@H]5OS(=O)(=O)[O-])CC[C@]4(C)[C@H]3CC[C@]12C.[Na+].[Na+].[Na+].[Na+].[Na+].[Na+].[Na+].[Na+].[Na+].[Na+].[Na+].[Na+].[Na+],IC50,[1],4270 nM
same,IC50,[2],9.9 µg/mL
same,EC50,SARS-CoV-2 [3],0.9 µg/mL
CCC[C@H](NC(=O)[C@@H]1[C@H]2CCC[C@H]2CN1C(=O)[C@@H](NC(=O)[C@@H](NC(=O)c1cnccn1)C1CCCCC1)C(C)(C)C)C(=O)C(=O)NC1CC1,IC50,SARS-CoV-2 [4],11600 nM
C[C@H](NC(=O)[C@H](Cc1ccccc1)NC(=O)OCc1ccccc1)C(=O)CF,EC50,SARS-CoV-2 [5],701000 nM
same,EC50,SARS-CoV-2 [6],9610 nM
CC(C)(C)OC(=O)N[C@@H](Cc1c[nH]c2ccccc12)C(=O)NNC(=O)OCC(=O)N1CCCc2ccccc21,EC50,SARS-CoV-2 [7],10900 nM
CC(=O)N[C@@H](CO)C(=O)N[C@@H](CCCCN)C(=O)N[C@@H](CC(C)C)C(=O)N[C@@H](CCCNC(=N)N)C(=O)c1nc2ccccc2s1,EC50,SARS-CoV-2 [8],4270 nM
CCCCCCCCCC(=O)N[C@@H](Cc1c[nH]c2ccccc12)C(=O)N[C@H](CC(N)=O)C(=O)N[C@@H](CC(=O)O)C(=O)N[C@@H]1C(=O)NCC(=O)N[C@@H](CCCN)C(=O)N[C@@H](CC(=O)O)C(=O)N[C@H](C)C(=O)N[C@@H](CC(=O)O)C(=O)NCC(=O)N[C@H](CO)C(=O)N[C@@H]([C@H](C)CC(=O)O)C(=O)N[C@@H](CC(=O)c2ccccc2N)C(=O)O[C@@H]1C,EC50,SARS-CoV-2 [5],207000 nM
same,EC50,SARS-CoV-2 [9],226000 nM
same,IC50,Procathepsin L,7870 nM
same,EC50,SARS-CoV-2 [10],98800 nM
CC(=O)N[C@H]1CC(=O)NCCCC[C@@H](C(=O)N[C@@H](CCCNC(=N)N)C(=O)c2nc3ccccc3s2)NC(=O)[C@H](CC(C)C)NC1=O,EC50,SARS-CoV-2 [8],197 nM
same,EC50,SARS-CoV-2 [11],104 nM
same,IC50,SARS-CoV-2 [12],660 nM
N#Cc1ccc(-c2cnc3[nH]cc(NC(=O)c4cccnc4)c3c2)cc1,EC50,Dengue virus,8000 nM
same,EC50,Ebolavirus,> 10000 nM
Ic1cccc(/C=N/Nc2nc(N3CCOCC3)nc(N(c3ccccc3)c3ccccc3)n2)c1,Kd,[13],32 nM
COc1ccc(C(=O)Nc2cccc(C(F)(F)F)c2)cc1Nc1nc(-c2cccnc2)c2[nH]ccc2n1,EC50,SARS-CoV-2 [14],9.3 nM
COc1ccccc1/C=N/NC(=N)c1nonc1NCNc1nonc1C(=N)N/N=C/c1ccccc1OC,IC50,SARS-CoV-2 [15],19 nM
CN(C)Cc1ccc2[nH]c3c(c2c1)Cc1nc(N)ncc1CC3,IC50,[16],6.9 nM
same,IC50,SARS-CoV-2 [17],19.5 nM
CS(=O)(=O)N[C@@H](CCC(N)=O)C(=O)N[C@@H](Cc1ccccc1)C(=O)N[C@@H](CCCNC(=N)N)C(=O)c1nc2ccccc2s1,EC50,SARS-CoV-2 [8],2.8 nM
CC(=O)N[C@@H](CC(C)C)C(=O)N[C@@H](CC(C)C)C(=O)N[C@H](C=O)CCCNC(=N)N,EC50,SARS-CoV-2 [5],39300 nM
same,IC50,[18],127000 nM
same,EC50,SARS-CoV-2 [6],10600 nM
C1=Nc2ccccc2/C1=C\NNc1nc(Nc2ccccc2)nc(N2CCOCC2)n1,Kd,[13],0.91 nM
O=C(N[C@H](/C=C/S(=O)(=O)c1ccccc1)CCc1ccccc1)[C@H](Cc1ccccc1)NC(=O)N1CCNCC1,EC50,SARS-CoV-2 [7],35 nM
CC(=O)N[C@@H](CCC(N)=O)C(=O)N[C@@H](Cc1ccccc1)C(=O)N[C@@H](CCCNC(=N)N)C(=O)c1nc2ccccc2s1,EC50,SARS-CoV-2 [8],0.53 nM
same,IC50,SARS-CoV-2 [12],52 nM
CC(=O)NCC(=O)N[C@@H](CCC(N)=O)C(=O)N[C@@H](Cc1ccccc1)C(=O)N[C@@H](CCCNC(=N)N)C(=O)c1nc2ccccc2s1,EC50,SARS-CoV-2 [8],0.43 nM
same,IC50,SARS-CoV-2 [12],74 nM
CCC(O)(CC)c1ccc2[nH]c3c(c2c1)Cc1nc(N)ncc1CC3,IC50,[16],1.8 nM
same,IC50,SARS-CoV-2 [17],23.9 nM
